Source: patent US20130231472A1, “USE OF MOLECULAR MARKERS FOR THE PRECLINICAL PROFILING OF INHIBITORS OF ENZYMES HAVING HISTONE DEACETYLASE ACTIVITY” (priority 2002, published 2013)

Assays:
[1] = tested on: acute promyelocytic leukemia mice; assay: Secondary acute promyelocytic leukemia mouse model: survival and splenomegaly; type: in vivo
Source text: FIG. 1: (A) Secondary acute promyelocytic leukemias were induced in mice. In brief, primary leukemias were induced in mice by injecting PMURAR expressing bone marrow cells into the tail veins. Mice with overt leukemias were euthanized, and leukemic cells were harvested from the spleen. Leukemic cells were re-injected i.v. (1×10^7 cells/mouse) in non-irradiated, syngeneic recipient mice. The secondary recipient mice developed overt leukemia in about 2-3 weeks. Leukemic mice or healthy mice (Ctrl) were then treated with placebo (lanes 1, 3), or VPA (400 mg/kg every 12 hours) for two consecutive weeks. (B) Leukemic mice were treated with placebo (lower, Ctrl) or VPA (400 mg/kg every twelve hours, upper) for one week. At the end of the treatment, mice were sacrificed, and spleens were photographed.

[2] = tested on: HDAC-2; assay: HDAC-2 protein levels in HEK293T cells (Westernblot); type: cell-based, human
Procedure: FIG. 6: (A) F9 teratocarcinoma or HEK293T embryonic kidney cells were exposed for indicated times to 1 mM VPA. Protein levels of HDAC-2 and HDACs 1 or 3 for reference (HDAC8; N-CoR and Sin3 as data not shown) were determined by Westernblot analysis. […] (C) The effect of other HDAC inhibitors on the amount of HDAC-2 protein was determined by using TSA (100 nM) in a time course analysis in F9 cells (left panel). The HDAC inhibitors TSA (100 nM), trapoxin (TPX, 10 nM), butyrate (1.5 mM) or MS275 (5 μM) were tested at a single time of exposure in HEK293T cells (right panel).
FIG. 9: (A) HEK293T cells were treated for 24 h with VPA or left untreated. The cell penetrating protease inhibitors pepstatin A, leupeptin, or ALLM were added as indicated at the time of VPA addition. (B) Proteasome inhibitors ALLN or MG-132 were added at the indicated concentrations 4 h before cells were harvested. Protein levels of HDAC-2 were determined by Westernblot analysis.

[3] = tested on: TRAIL; assay: TRAIL expression in spleen after in vivo treatment (RNAse protection assay); design: species or system mice; settings: VPA 400 mg/kg every 12 hours, FIG. 4A
Procedure: Leukemic mice or healthy mice (Ctrl) were then treated with placebo (lanes 1, 3), VPA (400 mg/kg every 12 hours), all-trans retinoic acid (a 21-day-release pellet containing 5 mg RA or placebo: lanes 8-9), and VPA plus retinoic acid (lanes 10-11). Mice were sacrificed 18 hours (lanes 4-5), or 36 hours after beginning of treatment (lanes 3, 6-7, 10-11): total RNAs were collected from the spleens (with a >75% invasion of leukemic blasts as assessed by Giemsa staining) and analyzed by RNAse protection assay to check for expression of TRAIL.

`CCCC(CCC)C(=O)O` [VPA, Valproic acid] was tested, and the “survival of leukemic mice” value ([1]; VPA 400 mg/kg every 12 hours for two consecutive weeks vs placebo, P<0.01, FIG. 1A) was “extended survival of leukemic mice in a statistically significant way”, the “splenomegaly caused by blast infiltration” value ([1]; VPA 400 mg/kg every twelve hours for one week vs placebo, FIG. 1B) was “dramatic reduction in the splenomegaly” and the HDAC-2 protein levels ([2]; HEK293T cells, VPA 1 mM, TSA 100 nM, trapoxin 10 nM, butyrate 1.5 mM, MS275 5 μM) was “reduced”. For the same compound, the “HDAC-2 protein levels at higher doses” value ([2]; HEK 293T, VPA concentrations increased up to 5 or 10 mM, 36 h, FIG. 6B) was “slightly more pronounced reduction”, the “TRAIL expression in spleen” value ([3]; healthy mice) was “did not cause induction of TRAIL expression” and the “TRAIL expression in spleen” value ([3]; leukemic mice, 18 or 36 hours) was “induced TRAIL for the entire duration of treatment”.
